Columns and labels:
[1] = tested on: IL-1-induced aggrecan degradation; assay: Aggrecan degradation in IL-1-stimulated chondrocytes, 2-B-6 antibody immunoblot; type: cell-based, bovine; conditions: for intensity of staining (total amount of PG fragments), 2-B-6: relative to PKA, PKC and calmodulin-dependent kinase inhibitor samples
Method: Primary bovine articular chondrocytes from calf adio-carpal joints were isolated and cultured as above in Example 1, up to and including the addition of the following protein kinase inhibitors: 1) Protein kinase A (PKA) inhibitors; 0.5 μM H88 (Seikagaku Corp.), 0.5 μM H89 (Seikagaku Corp.); 2) Protein kinase C (PKC) inhibitors; 0.5 μM Calphostin C (Calbiochem), 1.0 μM Chelerythrine (Calbiochem); 3) CA^2+/Calmodulin Kinase II inhibitor; 5.0 μM KN93 (Seikagaku Corp.); 4) Protein tyrosine kinase (PTK) inhibitors; 50 μM Genistein (Calbiochem), 10 μM Herbimycin A (Calbiochem). After the 24 hour IL-1α incubation, the media of each sample was measured, and collected on ice in the presence of the protease inhibitors EGTA (5 mM), Pefaloc (1 mM), pepstatin (1 μg/ml), and NEM (5 mM). Media were concentrated approximately 40 fold using a Centriprep-10 ultrafiltration device (Amicon).
Proteoglycans contained within the media were deglycosylated by incubations with chondroitinase ABC, keratinase, and keratinase II following the procedure of Sandy et al. J Biol Chem (1991) 266:8683-8685 and Sandy et al. J. Clin Invest (1992) 89:1512-1516. Samples of deglycosylated media were subjected to 4-15% gradient SDS-PAGE and transferred to nitrocellulose membranes (2 ml-worth and 6 ml-worth of media were used for 2-B-6 and BC-3 immunoblotting, respectively.) The membranes were blocked with 1% nonfat dry milk and 1% BSA, and then incubated in either the BC-3 or 2-B-6 primary monoclonal antibody for 1 hour. The 2-B-6 antibody detects chondroitin sulfate stubs on chondroitinase-treated proteoglycans (both intact and degradation products. BC-3 antibody detects “ARGSV . . . ,” the new N-terminus (“neoepitope”) resulting from cleavage of aggrecan interglobular domain at Glu^373/ALA^374 by aggrecanase. It is of note to mention that the BC-3 and 2-B-6 antibodies were of low sensitivity. Following 3 washes, membranes were incubated in either alkaline phosphatase-conjugated goat anti-mouse (for the 2-B-6 blot) or biotinylated goat anti-mouse (for the BC-3 blot); followed by alkaline phosphatase-conjugated streptavidin/biotin complex). After washing 3 times, immunoreactive proteins were detected using NBT/BCIP (Sigma) colorimetric substrate.
The 2-B-6 antibody detected intact aggrecan (the uppermost band) and several aggrecan degradation products, along with decorin and biglycan (50K doublet), in the IL-1-treated media samples. […] The bands in the IL-1 sample that are seen at 230K, 200K, 130K and 100K have been previously identified by sequence analysis to result from IL-1-induced “aggrecanase” cleavage.
A repeat of the Western immunoblotting experiment using 2-B-6 antibodies was performed. Furthermore, additional inhibitors from four enzyme families were examined: 1) Protein tyrosine kinase (PTK) inhibitors; 1 μM Tryphostin AG 1296 (Calbiochem), 50 μM Tyrphostin A25 (AG 82) (Calbiochem), 50 μM Tyrphostin AG 126 (Calbiochem), 50 μM Tyrphostin B56 (AG 556) (Calbiochem), 20 μM DAPH (Calbiochem); 2) Guanylate cyclase inhibitor; 10 μM LY-83583 (Calbiochem); 3) Casein kinase I inhibitor; 20 μM CKI-7 (Seikagaku Corp.); and 4) Protein kinase G (PKG) and PKA inhibitor; 5.0 μM H89.

prostromelysin protein = assay: Western immunoblot of IL-1-induced prostromelysin protein in primary bovine chondrocytes; type: cell-based; conditions: for effect on IL-1α-induced prostromelysin protein levels: repeat experiment; for effect on IL-1-induced prostromelysin levels: first experiment
Method: Isolation and culturing of primary bovine articular chondrocytes, as well as addition of inhibitors were performed as indicated above in Example 4. The following protein kinase inhibitors were tested: 1) Protein kinase A (PKA) inhibitors; 0.5 μM H88 (Seikagaku Corp.), 0.5 μM H89 (Seikagaku Corp.), 2) Protein kinase C (PKC) inhibitors; 0.5 μM Calphostin C (Calbiochem), 1.0 μM Chelerythrine (Calbiochem); 3) CA^2+/Calmodulin Kinase II inhibitor; 5.0 μM KN93 (Seikagaku Corp.); 4) Protein tyrosine kinase (PTK) inhibitors; 50 μM Genistein (Calbiochem), 10 μM Herbimycin A (Calbiochem).
After the 24 hour IL-1α incubation, the media of each sample was measured and collected on ice in the presence of the protease inhibitors EGTA (5 mM), Pefabloc (1 mM), pepstatin (1 μg/ml), and NEM (5 mM). Media were concentrated approximately 40 fold using a Centriprep-10 ultrafiltration device (Amicon). Concentrated samples were normalized to equivalent starting concentrations (cell number/culture volume), were reduced in the presence of SDS Laemmli sample buffer and electrophoresed in a precast 12% polyacrylamide gel (BioRad). Protein samples were then electroblotted to nitrocellulose and immunodetected using a primary antibody that recognizes both prostromelysin and stromelysin. Immunoreactive bands were visualized with the ABC detection (Pierce) and an NBT/BCIP color reagent (Sigma).
A repeat of the Western immunoblotting experiment using antistromelysin antibodies was performed. Furthermore, additional inhibitors from four enzyme families were examined: 1) Protein tyrosine kinase (PTK) inhibitors: 1 μM Tyrphostin AG 1296 (Calbiochem), 50 μM Tyrphostin A25 (AG 82) (Calbiochem), 50 μM Tyrphostin AG 126 (Calbiochem); 2) Guanylate cyclase inhibitor; 10 μM LY-83583 (Calbiochem); 3) Casein kinase I inhibitor; 20 μM CKI-7 (Seikagaku Corp.); and 4) Protein kinase G (PKG) and PKA inhibitor; 5.0 μM H89.

[2] = concentration not printed in Example 5

O=C1NC(=O)c2cc(Nc3ccccc3)c(Nc3ccccc3)cc21 [DAPH, 4,5-dianilinophthalimide]
inhibition of IL-1-induced aggrecan degradation, 2-B-6 ([1]; 20 μM, repeat experiment): moderately strong inhibition | effect on IL-1α-induced prostromelysin protein levels (prostromelysin protein; [2]): dramatic reduction

O=c1c(-c2ccc(O)cc2)coc2cc(O)cc(O)c12 [Genistein]
level of the 230K aggrecan degradation product, 2-B-6 ([1]; 50 μM): significantly reduce | levels of the uppermost band (intact aggrecan), 2-B-6 ([1]; 50 μM): increased | intensity of staining (total amount of PG fragments), 2-B-6 ([1]; 50 μM): reduced | inhibition of IL-1-induced aggrecan degradation, 2-B-6 ([1]; 50 μM, repeat experiment): partial inhibition | effect on IL-1-induced prostromelysin levels (prostromelysin protein; 50 μM): completely inhibited | effect on IL-1α-induced prostromelysin protein levels (prostromelysin protein; 50 μM): dramatic reduction

CO[C@H]1[C@@H](OC)C[C@H](C)[C@@H](OC)C2=CC(=O)C=C(NC(=O)/C(C)=C/C=C\[C@H](OC)[C@@H](OC(N)=O)/C(C)=C/[C@@H]1C)C2=O [Herbimycin A]
level of the 230K aggrecan degradation product, 2-B-6 ([1]; 10 μM): significantly reduce | levels of the uppermost band (intact aggrecan), 2-B-6 ([1]; 10 μM): increased | intensity of staining (total amount of PG fragments), 2-B-6 ([1]; 10 μM): reduced | inhibition at 10 µM ([1]; Bos taurus, Chondrocyte, 10 μM, repeat experiment): ~100% | effect on IL-1-induced prostromelysin levels (prostromelysin protein; 10 μM): completely inhibited | effect on IL-1α-induced prostromelysin protein levels (prostromelysin protein; 10 μM): dramatic reduction

N#CC(C#N)=Cc1cc(O)c(O)c(O)c1 [Tyrphostin AG 82]
inhibition of IL-1-induced aggrecan degradation, 2-B-6 ([1]; 50 μM, repeat experiment): moderate inhibition | effect on IL-1α-induced prostromelysin protein levels (prostromelysin protein; 50 μM): slight inhibitory activity

N#CC(C#N)=Cc1ccc([N+](=O)[O-])c(O)c1 [Tyrphostin AG 126]
inhibition of IL-1-induced aggrecan degradation, 2-B-6 ([1]; 50 μM, repeat experiment): no inhibitory effect | effect on IL-1α-induced prostromelysin protein levels (prostromelysin protein; 50 μM): no effect

N#C/C(=C\c1ccc(O)c(O)c1)C(=O)NCCCCc1ccccc1 [Tyrphostin AG 556]
inhibition of IL-1-induced aggrecan degradation, 2-B-6 ([1]; 50 μM, repeat experiment): 100% | effect on IL-1α-induced prostromelysin protein levels (prostromelysin protein; [2]): dramatic reduction

Reference: patent US6552066B1, “Protein tyrosine kinase inhibitors for treating osteoarthritis” (priority 1995, dated 2003)
